Reference: patent US12319676B2, “Substituted amide compounds useful as farnesoid X receptor modulators” (BRISTOL-MYERS SQUIBB COMPANY, priority 2019, dated 2025)

Biological target: T1, human FXR (Homo sapiens, UniProt Q96RI1)
T1 construct: expressed in transfected cells; host or cells: HEK293 cells stably carrying a 5xGal4 response element-luciferase reporter, transiently transfected with pcDNA3.1-Gal4-FXR
T1 sequence (Q96RI1 262-486 limits assumed): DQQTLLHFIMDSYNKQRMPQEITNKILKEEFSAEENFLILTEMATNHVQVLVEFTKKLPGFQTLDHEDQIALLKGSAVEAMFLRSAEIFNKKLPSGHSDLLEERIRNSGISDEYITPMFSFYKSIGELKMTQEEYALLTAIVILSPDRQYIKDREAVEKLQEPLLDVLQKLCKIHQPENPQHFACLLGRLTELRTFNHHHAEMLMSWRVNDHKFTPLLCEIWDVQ
Assay: transient human FXR/Gal4-luciferase reporter assay
Type: cell-based
Settings: Gal4-hFXR fusion construct, luciferase reporter in HEK293 cells; overnight incubation; response as percentage of 8 μM GW-4064 control
Summary of the method: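 HEK293 cells stably carrying a 5×Gal4-response-element firefly luciferase reporter were transiently transfected with a Gal4 DBD-human FXR LBD fusion, then treated overnight with compounds at 37 °C. Steady-Glo luminescence, minus DMSO background, was expressed as percent of the response to 8 μM GW-4064.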

| Structure (SMILES) | EC50 |
| --- | --- |
| CCOc1cccc(N(CC23CCC(c4noc(C(C)(F)F)n4)(CC2)CC3)C(=O)C23CC(F)(C2)C3)c1 [Example 130, N-((4-(5-(1,1-difluoroethyl)-1,2,4-oxadiazol-3-yl)bicyclo[2.2.2]octan-1-yl)methyl)-N-(3-ethoxyphenyl)-3-fluorobicyclo[1.1.1]pentane-1-carboxamide] | 91 nM |
| CC(F)(F)c1nc(C23CCC(CN(C(=O)NC[C@H](F)C(C)(C)O)c4cccc(Br)c4)(CC2)CC3)no1 [Example 131, (S)-1-(3-bromophenyl)-1-((4-(5-(1,1-difluoroethyl)-1,2,4-oxadiazol-3-yl)bicyclo[2.2.2]octan-1-yl)methyl)-3-(2-fluoro-3-hydroxy-3-methylbutyl)urea] | 228 nM |
| CC(C)(C)c1noc(C23CCC(CN(C(=O)C45CC(F)(C4)C5)c4cccc(Br)c4)(CC2)C3)n1 [Example 132, N-(3-bromophenyl)-N-((4-(3-(tert-butyl)-1,2,4-oxadiazol-5-yl)bicyclo[2.2.1]heptan-1-yl)methyl)-3-fluorobicyclo[1.1.1]pentane-1-carboxamide] | 498 nM |
| CC(C)(C)c1noc(C23CCC(CN(c4cccc(Br)c4)C(=O)[C@H]4C[C@](O)(C(F)(F)F)C4)(CC2)C3)n1 [Example 133, (1s, 3s)-N-(3-bromophenyl)-N-((4-(3-(tert-butyl)-1,2,4-oxadiazol-5-yl)bicyclo[2.2.1]heptan-1-yl)methyl)-3-hydroxy-3-(trifluoromethyl) cyclobutane-1-carboxamide] | 4000 nM |
| CC(C)(F)c1nc(C23CCC(CN(C(=O)C45CC(C(C)(C)O)(C4)C5)c4cccc(Br)c4)(CC2)CC3)no1 [Example 134, N-(3-bromophenyl)-N-((4-(5-(2-fluoropropan-2-yl)-1,2,4-oxadiazol-3-yl)bicyclo[2.2.2]octan-1-yl)methyl)-3-(2-hydroxypropan-2-yl)bicyclo[1.1.1]pentane-1-carboxamide] | 434 nM |
| CC(F)(F)c1nc(C23CCC(CN(C(=O)C45CC(F)(C4)C5)c4cc(F)cc(C#N)c4)(CC2)CC3)no1 [Example 135, N-(3-cyano-5-fluorophenyl)-N-((4-(5-(1,1-difluoroethyl)-1,2,4-oxadiazol-3-yl)bicyclo[2.2.2]octan-1-yl)methyl)-3-fluorobicyclo[1.1.1]pentane-1-carboxamide] | 18 nM |
| CC(F)(F)c1nc(C23CCC(CN(c4cc(F)cc(C#N)c4)C(=O)[C@H]4C[C@](O)(C(F)(F)F)C4)(CC2)CC3)no1 [Example 136, (1S,3S)-N-(3-cyano-5-fluorophenyl)-N-((4-(5-(1,1-difluoroethyl)-1,2,4-oxadiazol-3-yl)bicyclo[2.2.2]octan-1-yl)methyl)-3-hydroxy-3-(trifluoromethyl)cyclobutane-1] | 256 nM |
| CC(F)(F)c1nc(C23CCC(CN(C(=O)C4CC(F)(F)C4)c4cc(F)cc(C#N)c4)(CC2)CC3)no1 [Example 137, N-(3-cyano-5-fluorophenyl)-N-((4-(5-(1,1-difluoroethyl)-1,2,4-oxadiazol-3-yl)bicyclo[2.2.2]octan-1-yl)methyl)-3,3-difluorocyclobutane-1-carboxamide] | 103 nM |
| CC(F)(F)c1nc(C23CCC(CN(C(=O)C4CCS(=O)(=O)CC4)c4cc(F)cc(C#N)c4)(CC2)CC3)no1 [Example 138, N-(3-cyano-5-fluorophenyl)-N-((4-(5-(1,1-difluoroethyl)-1,2,4-oxadiazol-3-yl)bicyclo[2.2.2]octan-1-yl)methyl)tetrahydro-2H-thiopyran-4-carboxamide 1,1-dioxide] | 4000 nM |
| NC(=O)c1nc(C23CCC(CN(c4cccc(Br)c4)C(=O)[C@H]4C[C@](O)(C(F)(F)F)C4)(CC2)CC3)no1 [Example 139, 3-(4-(((1S,3S)—N-(3-bromophenyl)-3-hydroxy-3-(trifluoromethyl)cyclobutane-1-carboxamido)methyl)bicyclo[2.2.2]octan-1-yl)-1,2,4-oxadiazole-5-carboxamide] | 1450 nM |
| NC(=O)c1nc(C23CCC(CN(C(=O)C45CC(F)(C4)C5)c4cccc(Br)c4)(CC2)CC3)no1 [Example 140, 3-(4-((N-(3-bromophenyl)-3-fluorobicyclo[1.1.1]pentane-1-carboxamido)methyl)bicyclo[2.2.2]octan-1-yl)-1,2,4-oxadiazole-5-carboxamide] | 721 nM |
